Reference: paper PMC8752738, “A propolis-derived small molecule ameliorates metabolic syndrome in obese mice by targeting the CREB/CRTC2 transcriptional complex” (Nature Communications, 2022)
Where “and” joins values, the source holds several entries; their conditions need not be identical. Equal entries are not always repeated.

How the values were obtained:
[1] = test system: LXRα; test: Immunoblot of LXRα in insulin-stimulated primary hepatocytes; type: cell-based, mouse; conditions: for relative LXRa protein: individual replicates, Supp. Fig.6 b; for relative LXRa protein, mean: N=3
Method: 3 Supplementary Figure 6. APC inhibited transcription induced by half-CRE in the promoters of
5 a) Immunoblot of LXRa protein levels in primary hepatocytes stimulated with insulin (100 nM) for
6 indicated times (0–18 h). One presentative result from three experiments is shown here. Relative
7 LXRa protein level normalized to GAPDH shown as a bar graph (b). Data are represented as
8 mean ± SEM (n=3 per treatment). *, p < 0.05; **, p < 0.01; p values were determined by two-way […]
(1 picture or pasted object on this page, not shown here)

[2] = Body weight and body composition (living NMR) of mice; type: in vivo, mouse; parameters: AUC of body weight curve, group mean / fat mass of DIO, group mean / Total Area (AUC of body weight curve): unit not given here; conditions: for Total Area (AUC of body weight curve) / Body weight, column mean (main column effect) / AUC of body weight curve, group mean / Body weight (BW) / Fat/lean ratio / fat mass of DIO / Fat/lean ratio, group mean / fat mass of DIO, group mean: DIO mice; for Body weight, column mean (main column effect): mean over 5 weeks, N=45; for AUC of body weight curve, group mean: n=9; for Fat/lean ratio, group mean / fat mass of DIO, group mean: n=8; for body weight of db/db ip APC, group mean: N 6; for Body weight, group mean: N=7; for Body weight: individual mice
Method: All animal experiments were performed according to procedures approved by the Shanghai Institutes for Biological Sciences (SIBS) Animal Care and Use Committee. The db/db mice (stock NO. 000642 C57BL/6J, JACKSON) were purchased from the Jackson laboratory. The 8–10-week-old wild-type C57BL/6 and ICR/JCL mice were purchased from the Shanghai Laboratory Animal Center. Mice were housed in the animal facility at SIBS, in which mice were maintained on a 12-h light/12-h dark cycle for at least 2 weeks before the study and had free access to water and a regular diet (12% fat). For high-fat-induced obesity mice (DIO), high-fat diet (60% fat, Research Diets) was fed to wild-type mice for at least 13–15 weeks and glucose-tolerance tests were performed to confirm the development of diabetes in these mice. After being euthanized, samples were collected. Unless specified, male mice were used for these experiments.
Under the condition of non-anesthesia and non-invasion, the composition of fat and lean in live mice was analyzed by nuclear magnetic resonance (NMR, The Minispec, Bruker) according to the operational manual.

[3] = target: T1, luciferase (Photinus pyralis, UniProt P08659); test: Luciferase enzymatic assay; type: biochemical; conditions: lysate of HEK293T cells expressing CRE-Luc, 30 min
T1 construct: expressed in transfected cells; host or cells: HEK293T (lysate incubated with compound)
T1 sequence (P08659 whole entry): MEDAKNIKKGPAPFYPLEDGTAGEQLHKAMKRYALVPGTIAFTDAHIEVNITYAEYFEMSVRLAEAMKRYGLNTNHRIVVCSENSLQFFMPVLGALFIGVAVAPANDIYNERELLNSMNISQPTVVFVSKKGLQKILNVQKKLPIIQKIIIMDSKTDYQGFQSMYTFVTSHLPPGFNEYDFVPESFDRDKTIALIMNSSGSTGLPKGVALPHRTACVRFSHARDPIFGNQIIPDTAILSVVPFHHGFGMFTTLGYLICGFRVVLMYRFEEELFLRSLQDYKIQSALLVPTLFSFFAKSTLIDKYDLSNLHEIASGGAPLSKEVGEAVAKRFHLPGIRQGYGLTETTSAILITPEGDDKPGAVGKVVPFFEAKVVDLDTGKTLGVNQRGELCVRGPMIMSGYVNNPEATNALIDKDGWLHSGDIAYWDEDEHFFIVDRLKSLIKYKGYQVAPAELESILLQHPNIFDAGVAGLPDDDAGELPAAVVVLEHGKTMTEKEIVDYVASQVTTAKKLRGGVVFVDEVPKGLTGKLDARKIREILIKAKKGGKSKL
Method: HEK293T cells (4 × 10^5 per well of 24-well-plate) were transfected with plasmids expressing CRE-luciferase reporter (50 ng) together with RSV-β-gal (20 ng) by PEI-media overnight and induced by FSK (forskolin 10 nM) for 6-h. The cells were then collected in the lysis buffer (25 mM Gly-gly, 15 mM MgSO4, 4 mM EGTA, 1% V/V Triton X-100, 1 mM DTT, pH 7.8), mixed with an equal volume of luciferase substrate buffer (25 mM Gly-gly, 15 mM MgSO4, 4 mM EGTA, 250 mM potassium phosphate, 2.5 mM ATP, 2 mM DTT, 5 mg/mL luciferin, pH 7.8), and subjected to EnVision Multimode Plate Reader (Perkin/Elmer) to determine generated fluorescent signals.
13 d) Luciferase enzyme activity. The luciferase enzymatic activity from HEK293T cells incubated
The cells ectopically expressed luciferase (CRE-Luc) and were stimulated with FSK (10
15 nM) for 5 h before lysis, and then incubated with various concentrations of propolis for 30 min before
16 luciferase activity determination. One of two independent experiments presented here. Data are
17 represented as mean ± SEM (n=3 per treatment). ns, p > 0.05; *, p < 0.05; **, p < 0.01; p values were
18 determined by one-way ANOVA followed Dunnett’s multiple comparisons test.
13 f) The luciferase enzymatic activity of HEK293T incubated with APC. Cells over-expressed […]
17 determined by one-way ANOVA followed Dunnett’s multiple comparisons test.

[4] = DIO and db/db mice, i.p. 10 or 20 mg/kg
[5] = APC 10 mg/kg, individual animals
[6] = APC 20 mg/kg, individual animals
[7] = db/db mice, mean, sample size 7

CC(C)=CCc1cc(C=CC(=O)O)cc(CC=C(C)C)c1O [APC, 3,5-diprenyl-4-hydroxycinnamic acid]
relative LXRa protein ([1]; Insulin 0h): 101.09 and 100.00 and 97.00 | relative LXRa protein, mean ([1]; Insulin 0h): 99.36 | relative LXRa protein ([1]; Insulin 3h): 65.50 and 69.00 and 75.00 | relative LXRa protein, mean ([1]; Insulin 3h): 69.83 | relative LXRa protein, Mean Diff. 3h vs. 0h ([1]; Insulin 3h minus 0h, within APC group): -29.53 | relative LXRa protein ([1]; Insulin 18h): 33.42 and 31.00 and 29.00 | relative LXRa protein, mean ([1]; Insulin 18h): 31.14 | relative LXRa protein, Mean Diff. 18h vs. 0h ([1]; Insulin 18h minus 0h, within APC group): -68.22 | LXRα protein levels ([1]; primary hepatocytes, insulin treatment 18-h): significantly reduced | body weights [2, 4]: reduced | fat mass and fat to lean ratio [2, 4]: significant decrease | Total Area (AUC of body weight curve) ([2]; APC 10 mg/kg ip, individual animals): 120.1 and 149.9 and 145.1 and 147.4 and 144.1 and 156.2 and 141.9 and 151.1 and 155.2 | Body weight, column mean (main column effect) ([2]; APC 10 mg/kg ip, in g (unit assumed)): 37.24 | AUC of body weight curve, group mean ([2]; APC 10 mg/kg ip): 145.7 | Body weight (BW) ([2]; APC 10 mg/kg ip, week 0, individual animals): 35.8 g and 42.4 g and 44.2 g and 42.6 g and 43.4 g and 41.4 g and 42 g and 41.7 g and 47 g | Body weight (BW) ([2]; APC 10 mg/kg ip, week 1, individual animals): 29.5 g and 36.7 g (2×) and 37.7 g and 36.4 g and 42.9 g and 35.2 g and 34.9 g and 39.6 g | Body weight (BW) ([2]; APC 10 mg/kg ip, week 2, individual animals): 29.3 g and 36.8 g and 38.4 g and 36 g (2×) and 36.6 g and 42.8 g and 35.7 g and 39.9 g | Body weight (BW) ([2]; APC 10 mg/kg ip, week 3, individual animals): 29.3 g and 37.3 g and 38.5 g and 36.1 g and 35 g and 42.4 g and 35.3 g and 35.8 g and 39.5 g | Body weight (BW) ([2]; APC 10 mg/kg ip, week 4, individual animals): 29.7 g and 37.3 g and 38.4 g and 36.7 g and 33.7 g and 40.9 g and 33.3 g and 42 g and 37.2 g | Body weight (BW) ([2]; APC 10 mg/kg ip, week 5, individual animals): 34.01 g and 40.28 g and 41.99 g and 40.47 g and 41.23 g and 39.33 g and 39.9 g and 39.615 g and 44.65 g | Fat/lean ratio [2, 5]: 0.4757 and 0.5256 and 0.2029 and 0.4176 and 0.1933 and 0.2387 and 0.2853 and 0.2798 | fat mass of DIO [2, 5]: 10.86 g and 11.25 g and 7.23 g and 10.98 g and 11.28 g and 7.03 g and 6.72 g and 7.86 g | Fat/lean ratio, group mean ([2]; APC 10 mg/kg): 0.3274 | fat mass of DIO, group mean ([2]; APC 10 mg/kg): 9.151 | Total Area (AUC of body weight curve) ([2]; APC 20 mg/kg ip, individual animals): 123.1 and 131.4 and 141.8 and 135.4 and 152.5 and 146.9 and 147.6 and 154 and 138.7 | Body weight, column mean (main column effect) ([2]; APC 20 mg/kg ip, in g (unit assumed)): 35.74 | AUC of body weight curve, group mean ([2]; APC 20 mg/kg ip): 141.3 | Body weight (BW) ([2]; APC 20 mg/kg ip, week 0, individual animals): 36.3 g and 41.5 g and 43.7 g and 41.3 g (2×) and 48.2 g and 44.7 g and 46.6 g and 47.1 g | Body weight (BW) ([2]; APC 20 mg/kg ip, week 1, individual animals): 29.9 g and 34.9 g and 36.7 g and 33 g and 40.6 g and 37.6 g and 35.9 g and 38.6 g and 35.1 g | Body weight (BW) ([2]; APC 20 mg/kg ip, week 2, individual animals): 30.2 g and 33.7 g (2×) and 35.8 g and 41.6 g and 38.4 g and 36.8 g and 39.6 g and 34.9 g | Body weight (BW) ([2]; APC 20 mg/kg ip, week 3, individual animals): 30 g and 31.4 g and 35.1 g and 33.7 g and 41.2 g and 35.4 g and 36.3 g and 37.9 g and 34.4 g | Body weight (BW) ([2]; APC 20 mg/kg ip, week 4, individual animals): 30.5 g and 31.2 g and 34 g (2×) and 38.9 g and 31.3 g and 36.7 g and 37.2 g and 34.3 g | Body weight (BW) ([2]; APC 20 mg/kg ip, week 5, individual animals): 30.855 g and 35.275 g and 37.145 g and 35.105 g (2×) and 40.97 g and 37.995 g and 39.61 g and 40.035 g | Fat/lean ratio [2, 6]: 0.1945 and 0.1916 and 0.1806 and 0.5498 and 0.1998 and 0.4126 and 0.3005 and 0.2177 | fat mass of DIO [2, 6]: 8.13 g and 8.08 g and 9.26 g and 10.23 g and 9.91 g and 8.44 g and 10.75 g and 9.93 g | Fat/lean ratio, group mean ([2]; APC 20 mg/kg): 0.2809 | fat mass of DIO, group mean ([2]; APC 20 mg/kg): 9.341 | fat of db/db mice ([2]; db/db mice, individual animals): 13.23 g and 18.64 g and 16.51 g and 20.35 g and 17.58 g and 17.71 g and 15.53 g | fat/lean ratio of db/db mice ([2]; db/db mice, individual animals): 1.371 and 1.124 (2×) and 1.477 and 1.196 and 1.113 and 1.231 | body weight of db/db ip APC ([2]; db/db mice, 0W, individual animals): 45.4 g and 45.3 g and 44.6 g and 40 g and 47.8 g and 44 g | body weight of db/db ip APC ([2]; db/db mice, 1W, individual animals): 48.6 g and 47.9 g and 47.4 g and 42.5 g and 49.5 g and 45.9 g | body weight of db/db ip APC, group mean ([2]; db/db mice, 1W, mean): 46.97 g | body weight of db/db ip APC ([2]; db/db mice, 2W, individual animals): 48.4 g and 47.9 g and 47.3 g and 41.7 g and 48.9 g and 45.9 g | body weight of db/db ip APC ([2]; db/db mice, 4W, individual animals): 47.9 g and 46.5 g and 48.1 g and 42.5 g and 45.8 g and 47.8 g | body weight of db/db ip APC, group mean ([2]; db/db mice, 4W, mean): 46.43 g | body weight of db/db ip APC ([2]; db/db mice, 5W, individual animals): 47.9 g and 45.3 g and 47.8 g and 44.9 g and 46.8 g and 48.5 g | body weight of db/db ip APC, group mean ([2]; db/db mice, 5W, mean): 46.87 g | fat of db/db mice, group mean [2, 7]: 17.08 g | fat/lean ratio of db/db mice, group mean [2, 7]: 1.234 | Body weight, group mean ([2]; lean WT mice ip APC, 8w, in g (unit assumed)): 20.96 | Body weight ([2]; lean WT mice ip APC, 8w): 21.4 g and 21.2 g and 20.1 g and 20.5 g and 21.7 g and 20.9 g (2×) and 21.6 g | Body weight, column mean over all weeks ([2]; lean WT mice ip APC, 8w-15w, in g (unit assumed)): 22.98 | Body weight, group mean ([2]; lean WT mice ip APC, 10w, in g (unit assumed)): 22.01 | Body weight ([2]; lean WT mice ip APC, 10w): 23.62 g and 20.96 g and 22.95 g and 20.89 g and 22.05 g and 22.38 g and 21.2 g and 21.22 g | Body weight, group mean ([2]; lean WT mice ip APC, 12w, in g (unit assumed)): 23.14 | Body weight ([2]; lean WT mice ip APC, 12w): 25.7 g and 21.4 g and 23.7 g and 23 g and 24.2 g and 22.5 g and 23.3 g and 21.5 g | Body weight, group mean ([2]; lean WT mice ip APC, 13w, in g (unit assumed)): 24.08 | Body weight ([2]; lean WT mice ip APC, 13w): 25.85 g and 22.7 g and 24.7 g and 23.6 g and 24.5 g and 24.21 g and 23.8 g and 23 g | Body weight, group mean ([2]; lean WT mice ip APC, 15w, in g (unit assumed)): 24.72 | Body weight ([2]; lean WT mice ip APC, 15w): 27.03 g and 22.8 g and 25.2 g and 23.7 g and 26 g and 24.5 g and 23.5 g and 23.8 g | RER, body weight and plasma NEFA levels of lean mice ([2]; lean wild C57 mice, i.p. 20 mg/kg, 3 weeks): little effect | effect on luciferase enzymatic activity [3]: no effect
